Source: patent publication US20250032581A1, “COMPOSITIONS AND ARTICLES COMPRISING AN ADNF POLYPEPTIDE” (RAMOT AT TEL-AVIV UNIVERSITY LTD., priority 2021, published 2025)

Legend:
Tyr mice [1] = assay: Developmental milestone assessment, weight and length of Tyr mouse pups; type: in vivo
Method: Animals—Animals were housed under a 12-hour light/dark cycle, with food and water ad-libitum. Mouse pups were subcutaneously administrated with NAP [having an amino acid sequence NAPVSIPQ (SEQ ID NO: 2), 25 μg NAP/1 ml saline] as described (8, 12). At 21 days of age mice were administered daily intranasal NAP in vehicle solution (“DD”—7.5 mg/ml of NaCl, 1.7 mg/ml of citric acid, 3 mg/ml of disodium phosphate dihydrate, and 0.2 mg/ml of 50% benzalkonium chloride solution) (0.5 μg NAP/5p1 DD) (8, 9, 12, and U.S. Pat. No. 10,912,819 to Gozes). These mice continued to behavioral analysis as described hereinbelow. The noninvasive intranasal route was chosen as these experiments required daily handling and administration. Age (weeks) of mice during behavioral experiments (mean±SEM) was as follows: Catwalk—9.23±0.15, grooming—10±0.15, social approach—10.5±0.12, odor-discrimination—12.12±0.13, hanging-wire—13±0.14, hotplate—13.18±0.13. Group size was determined following previous experiments (12). Pups were randomly allocated to either the NAP or DD group according to sex and genotype. All procedures involving animals were conducted under the supervision and approval of the institutional animal care and use committee of Tel Aviv University and the Israeli Ministry of Health.
Developmental milestone assessment and fostering—This experiment included animals from 16 litters in 2 experimental batches. It was performed as previously described (12) with slight modifications. Experimenters were blinded to sex and genotype during experimental procedures. Sexes were grouped if no statistically significant sex differences were discovered.
Additional behavioral assessments— • Fostering: To enable daily handling necessary for developmental milestone assessment and drug treatment, Tyr pups were fostered by ICR females which are known to be excellent dams. Tyr pups were moved after birth to an ICR female mouse who gave birth up to 48 hours prior. ICR litter was culled according to the number of Tyr pups that were added. One day afterwards the remaining ICR pups were euthanized so only Tyr pups were left in the litter. • Pup litter distribution analysis: The genotyping results at p1 after placement with the foster mother was used for this measurement. […] The same day pups were randomized to either NAP or Saline treatment groups according to genotype and sex results and developmental milestone assessment was performed from p1 to p21. As animal randomization ended up with unequal male/female ratios for certain groups and no statistical differences were found between the sexes in any of the 4 treatment groups (T test), the sexes […], [That is except for eye opening, where a significant difference was observed between the sexes in the Tyr group (P=0.047, no significance in the other three treatment groups)]. Pup paws were tattooed using a 31-gauge needle and tattoo ink (Ketchum Manufacturing Co., catalog 329AA) for identification on P1 and, until P21, underwent daily measurements for length and weight and observation for eye opening. Pups were injected daily with NAP, 1 hour prior to the tests as previously described^1.
Briefly, for ear twitch reflex, a cotton tip was gently brushed against the tip of the ear three times, between postnatal days 7-15 or until the pup responded correctly for two consecutive days. For air righting reflex, the pup was held up-side down and released ˜10.5 cm above the cage, containing 5 cm of shavings. The test was performed between postnatal days 8-21 or until the pup landed on the shavings with all four paws, for two consecutive days. For surface righting reflex, pups were placed on their backs on a level surface, the test was performed between postnatal days 1-13 until the pups was able to right itself with all four paws on the surface in under a second for two consecutive days. For eye opening, mice were observed daily until both eyes were open (eyelids separated completely). […]

Tyr mice [2] = assay: RNA seq of mouse spleens; type: in vivo
Method: RNA seq—Total RNA was extracted from 14-week-old mouse spleens and sequenced using standard methods on NextSeq500 system (Illumina) as detailed. Data were analyzed as previously described (9).

[3] = test system: Tau-MT interaction in differentiated N1E-115 cells; assay: Fluorescence recovery after photobleaching (FRAP) of mCherry-Tau; type: cell-based, mouse; details: for Tau-MT interaction (immobile mCherry-Tau fraction): 4 hrs
Method: Cell culture—Mouse neuroblastoma NIE-115 cells were maintained in Dulbecco's modified Eagle's medium, 10% fetal bovine serum, 2 mM glutamine and 100 U ml-1 penicillin, 100 mg ml-1 streptomycin (Biological Industries, Beit Haemek, Israel). The cells were incubated in 9 5% air/5% CO2 in a humidified incubator at 37° C.
Cell differentiation and co-transfection of overexpression plasmids—Cultured NIE-115 cells were plated on 35 mm dishes (81156, 60 p-Dish, Ibidi, Martinsried, Germany) at a concentration of 1.25×10^4 cells per dish and then were differentiated with reduced fetal bovine serum (2%) and DMSO (1.25%) containing medium for 5 days before transfection. 48 hrs before experiments N1E-115 cells were co-transfected with 1 μg EB3-RFP or mCherry-Tau (3R) plasmid with or without 2 μg of plasmids, coding to GFP conjugated to full-length human ADNP, or ADNP carried mutations. 1:3 ratios between total amount of transfected DNA and transfection reagent were used according to manufacture guidance (Lipofectamine2000, Thermo Fisher Scientific, Waltham, MA, USA) in all subsequent experiments.
Fluorescence recovery after photobleaching (FRAP)—Differentiated NIE-115 cells were transfected with mCherry-Tau with or without GFP-conjugated to full-length ADNP or mutated ADNP, and imaged 48 hrs after transfection. An ROI for photobleaching was drowned in the proximal cell branches. mCherry-Tau was bleached with a […], and fluorescence recovery was collected within wavelengths of 610-650 nm. 80 images were taken every 0.74 sec immediately after bleaching. After FRAP imaging all samples were also treated with NAP in final concentrations of 10^−12M, and after 4 hrs time-lapse imaging was done again under the same conditions. FRAP imaging for assessment difference between NAP and SKIP (SEQ ID NO: 21) activity was performed after an hour of ZnCl2 treatment (400 μM final concentration; Sigma, Rehovot, Israel) with or without NAP/SKIP (10^−12M final concentration). Fluorescence signals were quantified with Fiji, obtained data were normalized with easyFRAP [82, 83] and FRAP recovery curves were fitted by a one-phase exponential association function by GraphPad Prism6 (GraphPad Software, Inc., La Jolla, CA, USA) while samples with R^2<0.9 were excluded.
Next, the effect of full-length/truncated ADNP forms with or without NAP treatment on Tau-MT interaction was examined by fluorescence recovery after photobleaching (FRAP) (FIGS. 8A-C). FRAP was performed with mCherry-tagged Tau protein (FIG. 8A). […] Therefore, the immobile mCherry-Tau fraction reflects the rate of Tau association with MTs.

With `CC[C@H](C)[C@H](NC(=O)[C@H](CO)NC(=O)[C@@H](NC(=O)[C@@H]1CCCN1C(=O)[C@H](C)NC(=O)[C@@H](N)CC(N)=O)C(C)C)C(=O)N1CCC[C@H]1C(=O)N[C@@H](CCC(N)=O)C(=O)O` [NAP, NAPVSIPQ] the rooting reflex (Tyr mice [1]; Tyr mice, data not shown) was “induced rooting in Tyr mice”, the “surface-righting, first day of acquisition” value (Tyr mice [1]; Tyr pups, daily s.c. NAP, WT 8.69±0.42, Tyr 10.14±0.36) was 8.81 ± 0.33 days and the “air-righting, first day of acquisition” value (Tyr mice [1]; Tyr pups, daily s.c. NAP, WT 12.96±0.28, Tyr 15.29±0.15) was 14.63 ± 0.38 days. For the same compound, the body weight (Tyr mice [1]; WT female mice, data not shown) was “no effect observed on WT female mice”, the eye opening (Tyr mice [1]; WT females, data not shown) was “no NAP effect was observed in WT females” and the developmental milestones (Tyr mice [1]; WT littermates, data not shown) was “no effect on WT littermates except for the cliff aversion response”. The eye opening (Tyr mice [1]; female Tyr mice, Tyr 16±0.37, WT 14.93±0.43) was 14.78 ± 0.46 days, the eye opening (Tyr mice [1]; males, data not shown) was “No genotype/NAP effect was observed on males” and the “spleen gene expression converging on AKT1, nervous and reproductive systems development” value (Tyr mice [2]) was “corrected by NAP”. The “Tau-MT interaction (immobile mCherry-Tau fraction)” value ([3]; cells expressing ADNP p.Glu830synfs*83, NAP 10^−12M) was “significantly increased Tau-MT interaction”, the “Tau-MT interaction (immobile mCherry-Tau fraction)” value ([3]; cells expressing ADNP p.Ser404*, NAP 10^−12M) was “significantly increased Tau-MT interaction” and the “Tau immobile fraction (Tau-MT interaction) in the presence of zinc” value ([3]; zinc 400 μM, 1 h, peptide 10^−12M) was “excessive impact of NAP on Tau-MT interaction”.
